These results are taken from US20260207777A1, “IMPROVED PEPTIDE INHIBITORS OF P53 BINDING PROTEIN 53BP1” (KAMAU THERAPEUTICS, INC., priority 2022, published 2026).

Data set [1] deals with CD34+ HSPCs. Put plainly: validation of individual i53 variants via lentiviral expression; GFP integration by flow cytometry (HBB-UBC-GFP AAV). The class given is cell-based, human. The conditions noted are these: HBB-UBC-GFP AAV MOI=1250. An excerpt:
Sequences of individual i53 variants of interest were cloned into the lentiviral-based expression plasmid described above. Hits were validated either as pooled “validation libraries” (variant and control plasmids manually mixed to generate a pool of 5-25 variants) or individually. Lentivirus generated from these plasmids was used to transduce CD34+ HSPC cells at MOIs of 0.5-1 at day 1 post thaw. […] Cells transduced with pooled validation libraries were edited in triplicate or quadruplet; cells transduced with individual variants were edited in duplicate.
For individual testing of variants, rates of integration of the HBB-UBC-GFP donor were measured using a Beckman Coulter CytoFLEX. DAPI (Miltenyi Biotec) was used to discriminate live and dead cells. mCherry expression was used to differentiate transduced cells from untransduced cells and rates of GFP integration were compared between the two populations to quantify the impact of lentiviral-based variant expression on HDR rates. Flow cytometry data were analyzed using FlowJo 10 software.
A general note: A flow cytometer gives signals particle by particle.

Data set [2] has as its system CD34+ HSPCs. Put plainly: editing of CD34+ HSPCs with purified i53 variant proteins and HBB-UBC-GFP AAV donor; flow cytometry. The class given is cell-based, human. The conditions noted are these: for increase of % HDR over DM: HBB-UBC-GFP AAV MOI 1250, protein 0.4 mg/mL, GFP integration in live cells, L67R/L67H value is the average of both; for increase in levels of GFP integration over control edited without protein: HBB-UBC-GFP AAV MOI 2500, average across all concentrations tested (0.1-0.8 mg/mL) and of L67R and L67H. Here is the method: (§1) Chemically-modified single guide RNAs (sgRNAs) used to edit CD34+ HSPCs at the HBB locus were purchased from Synthego. The sgRNA sequences were modified by adding 2′-O-methyl-3′-phosphorothioate at the three terminal nucleotides of the 5′ and 3′ ends. The target sequence for the HBB sgRNA is as follows: HBB: 5′[…]-3′ (SEQ ID NO: 74). Cas9 protein (SpyFi Cas9) was purchased from Aldevron. The RNPs were complexed at a Cas9:sgRNA molar ratio of 1:2.5 at 25° C. for 10-15 min prior to electroporation. Cells were collected, counted, and pelleted at 180 g×7 min. The cell pellets were resuspended in Maxcyte buffer with complexed RNPs and electroporated using a Maxcyte EXPERT ATx Nucleofector. After electroporation cells were plated at 3.5×10^5 cells/mL in media supplemented with cytokines and the desired AAV donor added at 5.0×10^2-2.5×10^4 vector genomes/cell. 24 h after nucleofection, cells were spun down, washed once with media, and seeded into AAV-free media at a density of 3.5×10^5 cells/mL.
(§2) CD34+ HPSCs were edited with protein variants 3 days post thaw and were harvested 2 days post nucleofection for NGS analysis or 3-5 days post nucleofection for GFP expression analysis. Editing reactions with proteins at a given concentration were repeated in duplicate or triplicate (either using the same CD34+ HSPC donor or across multiple donors).
Rates of targeted integration of the HBB UBC GFP donor were measured using a Beckman Coulter CytoFLEX. DAPI (Miltenyi Biotec) was used to discriminate live and dead cells. Flow cytometry data were analyzed using FlowJo 10 software.

In data set [3] the test system is CD34+ HSPCs. Nature of the data set: editing of CD34+ HSPCs with purified i53 variant proteins and HBB-SNP AAV donor; NGS of editing outcomes. It counts as cell-based, human. The conditions noted are these: for increase of % HDR over control edited without protein: FIG. 13, average across all concentrations (0.1, 0.2, 0.4 mg/mL) and of L67R and L67H; for increase in levels of HDR corrected alleles over DM / impact on % NHEJ: protein 0.4 mg/mL; for increase in levels of HDR corrected alleles over DM: L67R/L67H value is the average of both; for levels of % HDR corrected alleles: HBB-SNP AAV MOI 312.5 with protein 0.4 mg/mL, compared with 2500 MOI alone (8x the amount of AAV); for impact on % NHEJ: HBB-SNP AAV MOIs 312.5 and 2500. The protocol: as §1, §2
24 h after nucleofection, cells were spun down, washed with media, and seeded into AAV and DNAPKi-free media at a density of 3.5×10^5 cells/mL.
The frequency of homology directed repair (HDR) and other editing outcomes at HBB were measured using Next Generation Sequencing (NGS). An NGS assay was developed to determine the frequency of at the HBB locus by quantifying the total number of alleles that have been either: (1) not edited (% WT), (2) changed by HDR to incorporate sequence differences present in the AAV repair template (% HR), or (3) mutated during the genome correction process resulting in a gene that produces mutant β-globin (% INDELs).
For this assay, genomic DNA was harvested from cells using a Quick-DNA 96 Plus Kit (Zymo Research). The DNA concentration was measured using a Qubit 1×dsDNA BR assay kit (ThermoFisher). Purified genomic DNA was then used to amplify the HBB locus via polymerase chain reaction (PCR). The PCR products were diluted using nuclease-free water to serve as the template DNA for targeted NGS library prep. A second PCR with primers carrying partial Illumina adapters was performed to amplify a 142 base pair sequence that includes the region of the HBB locus that is to be corrected during the genome correction process. The PCR products were diluted again to serve as templates in a third PCR reaction using Nextera XT index primers. This third PCR reaction was used to assign unique identifiers to each sample and to add the full length adapter sequences necessary for Illumina sequencing. The size of the PCR products was assessed on an Agilent BioAnalyzer. PCR products were then pooled, purified using a Qiagen PCR purification kit, and quantified using PicoGreen in order to ready the PCR products for sequencing.
Based on the PicoGreen concentration, the library of pooled PCR products was diluted to a final concentration of 4 nM. Sequencing was performed on a MiSeq system using an Illumina MiSeq sequencing reagent kit (V2, 300 cycles). A 10% PhiX control library was added to the sample library to improve sequence diversity and to allow for error rate measurements. The library was denatured and loaded at […] onto the sequencing reagent cartridge. The sequencing entails paired-end 150 base pair reads and dual indexing reads. The sequencing data was demultiplexed based on the sample indexes provided and FASTQ files for each sample are generated.
The FASTQ files were processed using the CRISPResso2 pipeline^3. The data was reported as % WT, % corrected by HR, and % INDELs. […]

In data set [4] the test system is CD34+ HSPCs. Nature of the data set: DNA damage response (DDR) markers yH2AX and p21 in edited HSPCs. The conditions noted are these: protein 0.8 mg/mL; any given MOI (78.125-2500); 24 h post nucleofection.
Experimental: In order to quantify the induction of the DNA damage response (DDR) pathways, a subset of edited cells was harvested 24 h post nucleofection to quantify DDR markers p21 and yH2AX^5.
In the next data set the target is 53BP1 Tudor domain (Homo sapiens, UniProt Q12888). Put plainly: Bio-Layer Interferometry (BLI) with immobilized 53BP1 Tudor domain. The following applies: biotin-labeled immobilized 53BP1 Tudor domain; 1:1 binding model. The protocol:
Data were collected using an Octet R8 system (Sartorius). Purified 53BP1 Tudor domain was labeled at exposed primary amine groups with NHS-biotin using ChromaLINK NHS-Biotin protein labeling kit (Vector Laboratories). 1 equivalent of chromalink biotin was incubated with the 53BP1 Tudor domain for 2 hours and buffer exchanged into fresh PBS. Labeling efficiency was calculated to be approximately 1 biotin per molecule of 53BP1 Tudor domain. Octet SA Biosensor tips (Sartorius) were incubated with biotin-labeled 53BP1 Tudor domain (ligand) for 60-80 seconds. The labeled tip was then dipped in 1× binding buffer (Sartorius) for 60 seconds to remove excess ligand and achieve baseline. […] A range of analyte concentrations were tested from a highest to lowest concentration in nM (i.e. 200, 100, 50, 25, 12.5, 6.25, 3.125). The tips were then introduced to 1× binding buffer for 5 minutes and the response was continuously monitored to detect dissociation. A dissociation constant (KD) was calculated using a 1:1 binding model and the on-rate (ka) and off-rate […] were calculated as a change in response (nm) over time (sec).
On the technique in general: BLI is a label-free optical method that tracks binding on a fibre tip over time.

Chain of 53BP1 Tudor domain (Q12888 1484-1603): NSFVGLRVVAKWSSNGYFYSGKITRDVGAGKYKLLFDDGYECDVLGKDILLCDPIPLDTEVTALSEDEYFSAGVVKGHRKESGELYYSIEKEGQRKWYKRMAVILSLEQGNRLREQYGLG

With “L67R: i53 variant with Arg at position 67”, the “rates of GFP integration in mCherry+ live cells in relation to mCherry- control cells, compared with i53 and DM” value in the data set with CD34+ HSPCs [1] is listed as “higher rates of GFP integration”. Besides, in the data set with CD34+ HSPCs [2], the “increase of % HDR over DM” value came to 69% and the “increase in levels of GFP integration over control edited without protein” value is recorded as 70%. In addition, in the data set on CD34+ HSPCs [3] (HBB-SNP AAV MOI 312.5), the “increase of % HDR over control edited without protein” value is given as 62% and the “increase in levels of HDR corrected alleles over DM” value (from here on “increase in levels … over DM”) is listed as 56%. Moreover, in the data set on CD34+ HSPCs [3] (HBB-SNP AAV MOI 2500), the “increase of % HDR over control edited without protein” value is reported as 27% and the “increase in levels … over DM” value is on record as 44%. Moreover, in the data set with CD34+ HSPCs [3], the “levels of % HDR corrected alleles” value was “approaching those using 2500 MOI alone” and the “impact on % NHEJ” value is “more significant impact on % NHEJ relative to i53”. Also, in the data set with CD34+ HSPCs [4], the p21 response entry was “not found to significantly increase” and the yH2AX response result is “not found to significantly increase”. Also, the “rate of binding compared to parent i53” value with 53BP1 Tudor domain is given as “measurably increased rate of binding compared to parent i53”.
Consider “L67H: i53 variant with His at position 67”, for which the “rates of GFP integration in mCherry+ live cells in relation to mCherry- control cells, compared with i53 and DM” value in the data set with CD34+ HSPCs [1] is “higher rates of GFP integration”. Besides, in the data set on CD34+ HSPCs [2], the “increase of % HDR over DM” value worked out at 69% and the “increase in levels of GFP integration over control edited without protein” value is recorded as 70%. Also, in the data set with CD34+ HSPCs [3] (HBB-SNP AAV MOI 312.5), the “increase of % HDR over control edited without protein” value amounted to 62% and the “increase in levels … over DM” value was 56%. Moreover, in the data set on CD34+ HSPCs [3] (HBB-SNP AAV MOI 2500), the “increase of % HDR over control edited without protein” value is 27% and the “increase in levels … over DM” value was found to be 44%. In the data set with CD34+ HSPCs [3], the “levels of % HDR corrected alleles” value is reported as “approaching those using 2500 MOI alone” and the “impact on % NHEJ” value is “more significant impact on % NHEJ relative to i53”. Besides, the “rate of binding compared to parent i53” value in the data set with 53BP1 Tudor domain is recorded as “measurably increased rate of binding compared to parent i53”.
